We go through three substances from US20230072790A1, “COMPOUNDS AND FORMULATIONS FOR PROTECTIVE COATINGS” (Apeel Technology, Inc., priority 2021, published 2023).

One data set concerns unwaxed pixie oranges. In words: Mass loss factor of coated unwaxed pixie oranges (Example 13). Conditions: 2 g/L sorbitan monolaurate added to 50 g/L 95/5 monostearate/sodium stearate, bowl dip, 70° C. In kind it is in vivo, orange. The procedure: (§1) As used herein, the term “mass loss factor” is defined as the ratio of the average mass loss rate of uncoated produce (measured for a control group) to the average mass loss rate of the corresponding tested produce (e.g., coated produce) over a given time.
FIG. 21 is a graph showing mass loss factors for unwaxed pixie oranges (“pixies”). One group of pixies was not treated. A second group of pixies was treated with 50 g/L of Treatment C. A third group of pixies was treated with 50 g/L of Treatment C and 2 g/L of a wetting agent (WAG). A fourth group of pixies was treated with 50 g/L of a 95/5 mixture of monostearate/sodium stearate and 2 g/L sorbitan monolaurate. The coatings were applied using a bowl dip method and were dried at a temperature of 70° C. […] The pixies were mostly dry (~80%) coming out of the heat tunnel.

A short description of data set [1]: X-ray scattering of thin-film coatings (Example 10). It counts as physicochemical. Conditions: 95 wt% sorbitan ester / 5 wt% sodium stearate; film cast from 30 g/L aqueous solution, dried 40° C. 4 hours. An excerpt: As used herein, “lamellar structure” refers to a structure comprising lamella(e) vertically stacked adjacent to each other and held together by intermolecular forces. As used herein, “lamella(e)” refers to one lamella or two or more lamellae, that is, one or more discrete layers of molecules, respectively. In some embodiments, the molecules present in the lamella(e) are ordered (e.g., aligned, as in an open bilayer). The distance between a surface of a lamella and a surface of an adjacent lamella that is facing the same direction is referred to herein as “interlayer spacing” or “periodic spacing”. Interlayer spacing between two lamellae is determined by (1) obtaining an out-of-plane X-ray scattering image of a coating, (2) determining the scattering vector (q) of the peak corresponding to the lamellar structure, and (3) using Bragg’s equation below, determine the interlayer spacing (d).
Coating agents were applied to the surface of a plastic substrate, which acts as a hydrophilic surface when exposed to air. An X-ray scattering image of the applied coat was obtained to identify characteristics of the coating.
Specifically, a coating agent of sorbitan monostearate (95 wt%) and sodium stearate (5 wt%) was applied to a substrate as a thin-film. The films were drop cast from a 30 g/L aqueous solution and dried at 40° C. for 4 hours. […] “LAM” refers to lamellar or bilayer morphology. […]

Another data set concerns California avocados. The data set is described as follows: Respiration factor of coated California avocados (Example 11). It counts as in vivo, avocado. The conditions noted are these: 30 g/L sorbitan ester. An excerpt:
(§2) As used herein, the term “respiration rate” refers to the rate at which the product releases gas, such as CO2. This rate can be determined from the volume of gas (e.g., CO2) (at standard temperature and pressure) released per unit time per unit weight of the product. The respiration rate can be expressed as ml gas/kg·hour. The respiration rate of the product can be measured by placing the product in a closed container of known volume that is equipped with a sensor, such as a CO2 sensor, recording the gas concentration within the container as a function of time, and then calculating the rate of gas release required to obtain the measured concentration values.
(§3) As used herein, the term “respiration factor” is defined as the ratio of the average gas diffusion (e.g., CO2 release) of uncoated produce (measured for a control group) to the average gas diffusion of the corresponding tested produce (e.g., coated produce) over a given time.
FIG. 17 is a graph showing mass loss factors for California avocados. The Untreated group of avocadoes was not treated. A second group of avocados was treated with 15 g/L of Treatment C. A third group of avocados was treated with 30 g/L of Treatment C. A fourth group of avocados was treated with 30 g/L sorbitan monopalmitate (MP) (100 wt%). A fifth group of avocados was treated with a 30 g/L sorbitan monostearate (MS). […]

Data set [2] has as its system Mexican avocados. The data set is described as follows: Mass loss factor of coated Mexican avocados (Example 12). It counts as in vivo, avocado. Conditions: brush bed, dried 70° C., sorbitan monostearate as 94 wt% with 6 wt% sodium stearate. The procedure: as §1
FIG. 19 is a graph showing mass loss factors (MLF) for Mexican avocados. A first group of avocados was not treated. A second group of avocados was treated with 20 g/L of Treatment C. A third group of avocados was treated with 40 g/L of Treatment C. The monoglyceride coatings were mixed with a high shear mixer. A fourth group of avocados was treated with 20 g/L of a mixture of sorbitan monostearate (94 wt%) and sodium stearate (6 wt%). A fifth group of avocados was treated with 40 g/L of a mixture of sorbitan monostearate (94 wt%) and sodium stearate (6 wt%). The sorbitan monostearate coatings were mixed with blenders. The coatings were applied using a brush bed and were dried at a temperature of 70° C. […] The MLF of 20 g/L of […] monostearate/sodium stearate was 1.49 and the MLF of the 40 g/L 95/5 monostearate/sodium stearate was 2.24.

For data set [3], the system named is Mexican avocados. The data set is described as follows: Respiration factor of coated Mexican avocados (Example 12). In kind it is in vivo, avocado. Conditions: day 1.
Excerpt: as §2, §3
FIG. 19 is a graph showing mass loss factors (MLF) for Mexican avocados. A first group of avocados was not treated. A second group of avocados was treated with 20 g/L of Treatment C. A third group of avocados was treated with 40 g/L of Treatment C. The monoglyceride coatings were mixed with a high shear mixer. A fourth group of avocados was treated with 20 g/L of a mixture of sorbitan monostearate (94 wt%) and sodium stearate (6 wt%). […]

As for sorbitan monolaurate, the “mass loss factor increase compared to the untreated substrates” value with unwaxed pixie oranges is listed as 3.56 times.
Turning to sorbitan monopalmitate, the “periodicity of alternating bilayers” value in data set [1] turned out to be 5.6 nm. The “respiration factor compared with 95/5 monostearate/sodium stearate at 30 g/L” value in the data set with California avocados was “higher”.
As to sorbitan monostearate, the “periodicity of alternating bilayers” value in data set [1] amounted to 5.5 nm. Also, the “respiration factor compared with 95/5 monostearate/sodium stearate at 30 g/L” value in the data set with California avocados is “comparable”. Besides, the “MLF (mass loss factor)” value in the data set with Mexican avocados [2] (20 g/L) amounted to 1.83; with Mexican avocados [2] (40 g/L) it was 2.32. The entries for the “RF (respiration factor)” value in the data set with Mexican avocados [3] (20 g/L) and with Mexican avocados [3] (40 g/L) were 1.15 and 1.25, respectively.
